From the METLIN SMRT retention time set (Domingo-Almenara et al. 2019)

Assay: gradient 5% acetonitrile 3 min, to 50% in 2 min, to 85% in 15 min, held 3 min, 100 µL/min
Conditions: column: Zorbax Extend-C18 2.1 x 50 mm; eluents: water / acetonitrile, 0.1% formic acid
Procedure, shortened: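 Retention times come from adduct peaks that were picked computationally and then checked by hand. The standards, pure and pooled in mixtures of ~100 molecules, were run on a Zorbax Extend-C18 column (2.1 × 50 mm, 1.8 μm) at 100 μL/min with water and acetonitrile, each with 0.1% formic acid. Detection was by quadrupole time-of-flight mass spectrometry in positive and negative ionization mode, with a dead volume of 40 μL and a dwell volume of 900 μL.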

Structure (SMILES) | RP-LC retention time [s]
Cc1noc(CN2CCN(C3CCN(Cc4cc(F)ccc4F)C3)C2=O)n1 (stereo unspecified) | 576
Cn1c(=O)c2cc(C(=O)Nc3cccc(Cl)c3)cnc2n(-c2ccccc2)c1=O | 980
CCn1ccc2cc(S(=O)(=O)N3CCC(C(=O)NCCC(C)N4CCCC4)CC3)ccc21 (stereo unspecified) | 648
Cc1c(Cl)cccc1-n1nc(C)c2c(C(F)(F)F)cc(OCC(=O)NC(C)C)nc21 | 1160
CCOc1ccc2nc(N3CCCC(C(=O)N4CCC(Cc5ccccc5)CC4)C3)sc2c1 (stereo unspecified) | 1180
CC(C)n1c(=O)c2ccccc2n(Cc2nc(-c3ccc4c(c3)OCO4)no2)c1=O | 1080
O=C(NC1CCN(c2cc(-c3ccc(F)cc3)[nH]n2)C1)c1ccccc1Cl (stereo unspecified) | 721
CSc1ccc(NC(=O)N2CCC(c3nc(C(=O)N4CCCCC4)c(C)o3)CC2)cc1 | 840
Cc1oc2c(c1C(=O)NCCc1ccccc1Cl)C1=NCCN1C=N2 | 651
Fc1ccc(C2Cn3nnc(-c4nc(-c5ccncc5)no4)c3CO2)cc1 (stereo unspecified) | 912
CCc1ccc(CNC(=O)c2cc(-c3ccncc3)cn2C)cc1 | 669
Cn1c(N2CCN(C(=O)Cc3ccc(F)cc3)CC2)cc(=O)n(C)c1=O | 680
O=C(O)C1CCCN(c2cc(-n3ccnc3)ncn2)C1 (stereo unspecified) | 537
O=C(c1ccoc1)N1CCCCC1c1nc(-c2cnccn2)no1 (stereo unspecified) | 664
CCC(=O)Nc1ccc(-n2cnc(C(=O)NCC3CCCO3)c2)nc1 (stereo unspecified) | 614
Cn1c(=O)n([C@H]2CCN(S(=O)(=O)c3ccccc3Cl)C2)c2ncccc21 | 840
Cn1ccc2cc(S(=O)(=O)N3CCCC(C(=O)N4CCN(c5ccccn5)CC4)C3)ccc21 (stereo unspecified) | 663
CCOc1ccc(CC(=O)N2CCN(c3c(C)n(C)c(=O)n(C)c3=O)CC2)cc1OCC | 742

Structure (SMILES) | RP-LC retention time [s]
CC(C)CC(=O)N1CCc2c(c(C(=O)N3CCCC(C(=O)Nc4ccccc4)C3)nn2C)C1 (stereo unspecified) | 747
O=C(CSCCc1ccccn1)Nc1c(F)c(F)c(F)c(F)c1F | 643
Cc1ccc(S(=O)(=O)N2C[C@@H](F)C[C@H]2C(=O)N2CCc3ccccc3C2)c(C)c1 | 992
Cc1ccc(C)c(S(=O)(=O)N2c3ccccc3CC2c2nc(C(C)C)no2)c1 (stereo unspecified) | 1230
Cc1ccsc1CN1CCCC1c1nnc2n1CCN(C(=O)C(C)C)CC2 (stereo unspecified) | 585
N#Cc1cccc(NC(=O)N2CCC(c3cc(N)on3)CC2)c1 | 660
Fc1ccc(-c2nnc(Cc3nc(-c4cccc(F)c4)no3)o2)cc1 | 990
O=C(Nc1cc(F)ccc1F)N1CCC(CCNC(=O)C2(c3ccccc3)CC2)CC1 | 948
CC(C)Nc1nc(N2CCN(C3CCCCC3)CC2)nc2c1cnn2C | 648
Cc1ccn2c(Nc3ccc4c(c3)OCO4)c(-c3ccc(N(C)C)cc3)nc2c1 | 734
CC(C)c1ccc(NC(=O)C2CCN(S(=O)(=O)c3ccc4c(c3)CCCC(=O)N4)CC2)cc1 | 883
CCCNC(=O)C1Cn2cccc2C(=O)N1 (stereo unspecified) | 581
CC(C)Cc1noc(C2(F)CCN(S(=O)(=O)c3ccccc3)CC2)n1 | 691
CN1C(=O)C2CCCCN2c2ccc(C(=O)N3CCC(Cc4ccccc4)CC3)cc21 (stereo unspecified) | 1110
COc1ccc(N2CCN(C(=O)C3CCCN(c4nnc5cccc(C)n45)C3)CC2)cc1 (stereo unspecified) | 661
CCOc1ccc(NC(=O)C2CCN(S(=O)(=O)c3ccc4c(c3)NC(=O)C(C)O4)CC2)cc1 (stereo unspecified) | 880
O=C(NCCCN1CCCC1=O)c1csc(N2CCN(c3ccc(Cl)cc3)CC2)n1 | 881
COCc1cc(=O)n(CC(=O)Nc2cccc(C)c2C)c(N)n1 | 602
